# Assay results: PubChem BioAssay AID2060884 (Molecular Pharmacology Branch, DTP, NCI, 2025)
# System: NCI-H929 complex spheroids, viability % test/control
# Experiment: Anticancer human tumor NCI-H929 cell line growth inhibition [RAS];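 further: compound exposure lasted seven days before viability was read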
# Conditions: for IC50: curve of first compound; for viability, T/C: stronger effect = lower value
# Description: RAS pathway inhibitors in Combinations in Complex Spheroids
# A high-throughput screen of multi-cell type tumor spheroids was designed to identify active combinations of RAS pathway inhibitors and targeted small molecules. Complex spheroids include a stromal component modeled by human endothelial cells (HUVEC) and fibroblasts modeled by human mesenchymal stem cells (MSCs). The concentration ranges selected for each drug and investigational agent were based upon clinically achievable concentrations if the clinical Cmax of the agent was known.
# Compounds. The drugs and investigational agents: abemaciclib (NSC768073), cobimetinib (NSC768068), divarasib (GDC6063, NSC841802), docetaxel (NSC628503), GDC-1971 (RLY-1971, NSC841576), gemcitabine (NSC613327), inavolisib (NSC800729), ipatasertib (NSC767898), KB-0742 (NSC834161), MRTX-1133 (NSC836407), osimertinib (NSC779217), RMC-4630 (NSC839698), RMC-6236 (NSC851965), RMC-6291 (NSC852671), Ro-3306 (NSC812927), sapanisertib (NSC764658), SN-38 (NSC673596), staurosporine (NSC755774), SY5609 (NSC837396), and tovorafenib (DAY101, NSC766906), were obtained from the National Cancer Institute (NCI) Developmental Therapeutics Program Chemical Repository. The FDA-approved anticancer drug set is available from the NCI Developmental Therapeutics Program. […] The stock solutions were prepared in dimethyl sulfoxide (DMSO, Sigma-Aldrich, St. Louis, MO, cat. D2650) at 800-fold the tested concentration and stored at -70 degrees C prior to their use. All drugs and investigational agents were tested over a range starting from a high concentration at or near the clinical Cmax and decreasing in half-log increments. If the clinical Cmax for an agent had not been determined, the highest concentration tested was 10 microM.
# Cell Culture. All cells were maintained in an incubator at 37 degrees C and 5% CO2 with 95% humidity. The PDC lines were cultured according to standard operating procedures established by the NCI PDMR. All PDCs were thawed and cultured in Matrigel-coated flasks prepared with a working solution of 1X Ham's F-12 nutrient mix, without supplementation (Invitrogen, Waltham, MA, cat. 11765054), 100 U/mL penicillin-streptomycin (Invitrogen, cat. 15140122), and 2.5% Matrigel (Corning Inc., Corning, NY, cat. 354248) for the first three passages. The 362531-283-R-J2-PDC and 782815-120-R-J1-PDC lines were cultured in 6C/Colon 1B media, which includes advanced DMEM/F-12 (Thermo Fisher Scientific, cat. 12634028), 10 mM HEPES (Thermo Fisher Scientific, cat. 15630080), 1X GlutaMAX supplement (Thermo Fisher Scientific, cat. 35050061), 0.1 mg/mL primocin (InvivoGen, San Diego, CA, cat. ant-pm-2), 10% defined fetal bovine serum, heat inactivated (HyClone Laboratories Inc., Logan, UT, cat. SH30070.03HI), 50% L-WRN conditioned media (ATCC, cat. CRL-3276), 1.25 mM N-Acetyl-L-cysteine (Sigma-Aldrich, cat. A9165), 10 mM nicotinamide (Sigma-Aldrich, cat. N0636), 1X B-27 supplement (Thermo Fisher Scientific, cat. 17504044), 1X N-2 supplement (Thermo Fisher Scientific, cat. 17502048), 50 ng/mL human EGF (Thermo Fisher Scientific, cat. PHG0311), and 10 microM Y-27632 dihydrochloride (Tocris Bioscience, cat. 1254). The K12877-001-R-J1-PDC line was cultured in 6I media, which includes all 6C/Colon 1B media plus 10 ng/mL human FGF-10 (PeproTech, cat. 100-26), 1 ng/mL human FGF-2 (PeproTech, cat. 100-18B), 1 µM prostaglandin E2 (Tocris Bioscience, cat. 2296), […] hydrocortisone (Sigma-Aldrich, cat. H4001), and […] bovine insulin (Sigma-Aldrich, cat. I6634). The K86415-001-R-J1-PDC line was cultured in 6D media, which includes all 6C/Colon 1B media components minus the L-WRN conditioned media. The 485176-168-R4-J1-PDC was cultured in PANC media, which includes all 6C/Colon 1B media plus 100 ng/mL human FGF-10 (PeproTech, cat. 100-26), 500 nM SB-431542 (Selleckchem, cat. S1067), and 10 nM gastrin (Tocris Bioscience, cat. 3006). […]
# [1] = second compound 0.0316 µM, first compound 0.0316 µM
# [2] = second compound 0.0316 µM, first compound 0.1 µM
# [3] = second compound 0.0316 µM, first compound 0.316 µM
# [4] = second compound 0.0316 µM, first compound 1 µM
# [5] = second compound 0.0316 µM, first compound 3.16 µM
# [6] = second compound 0.0316 µM, first compound 10 µM
# [7] = second compound 0.1 µM, first compound 0.0316 µM
# [8] = second compound 0.1 µM, first compound 0.1 µM
# [9] = second compound 0.1 µM, first compound 0.316 µM
# [10] = second compound 0.1 µM, first compound 1 µM
# [11] = second compound 0.1 µM, first compound 3.16 µM
# [12] = second compound 0.1 µM, first compound 10 µM
# [13] = second compound 0.316 µM, first compound 0.0316 µM
# [14] = second compound 0.316 µM, first compound 0.1 µM
# [15] = second compound 0.316 µM, first compound 0.316 µM
# [16] = second compound 0.316 µM, first compound 1 µM
# [17] = second compound 0.316 µM, first compound 3.16 µM
# [18] = second compound 0.316 µM, first compound 10 µM
# [19] = second compound 1 µM, first compound 0.0316 µM
# [20] = second compound 1 µM, first compound 0.1 µM
# [21] = second compound 1 µM, first compound 0.316 µM
# [22] = second compound 1 µM, first compound 1 µM
# [23] = second compound 1 µM, first compound 3.16 µM
# [24] = second compound 1 µM, first compound 10 µM
# [25] = second compound 3.16 µM, first compound 0.0316 µM
# [26] = second compound 3.16 µM, first compound 0.1 µM
# [27] = second compound 3.16 µM, first compound 0.316 µM
# [28] = second compound 3.16 µM, first compound 1 µM
# [29] = second compound 3.16 µM, first compound 3.16 µM
# [30] = second compound 3.16 µM, first compound 10 µM
# [31] = second compound 10 µM, first compound 0.0316 µM
# [32] = second compound 10 µM, first compound 0.1 µM
# [33] = second compound 10 µM, first compound 0.316 µM
# [34] = second compound 10 µM, first compound 1 µM
# [35] = second compound 10 µM, first compound 3.16 µM
# [36] = second compound 10 µM, first compound 10 µM
compound,measurement,setting,value
CC(C)NCC(C(=O)N1CCN(c2ncnc3c2C(C)CC3O)CC1)c1ccc(Cl)cc1 (centres undefined) + C#Cc1c(F)ccc2cc(O)cc(-c3ncc4c(N5CC6CCC(C5)N6)nc(OCC56CCCN5CC(F)C6)nc4c3F)c12,IC50,second compound 0.0316 µM,4.58 µM
same,IC50,second compound 0.1 µM,3.05 µM
same,IC50,second compound 0.316 µM,3.32 µM
same,IC50,second compound 1 µM,3.81 µM
same,IC50,second compound 3.16 µM,2.83 µM
same,IC50,second compound 10 µM,1.59 µM
same,"viability, T/C",[1],105%
same,"viability, T/C",[2],105%
same,"viability, T/C",[3],111%
same,"viability, T/C",[4],102%
same,"viability, T/C",[5],66%
same,"viability, T/C",[6],16.3%
same,"viability, T/C",[7],96.9%
same,"viability, T/C",[8],105%
same,"viability, T/C",[9],109%
same,"viability, T/C",[10],104%
same,"viability, T/C",[11],48.3%
same,"viability, T/C",[12],14.1%
same,"viability, T/C",[13],96.2%
same,"viability, T/C",[14],101%
same,"viability, T/C",[15],108%
same,"viability, T/C",[16],106%
same,"viability, T/C",[17],51.6%
same,"viability, T/C",[18],13.6%
same,"viability, T/C",[19],98.4%
same,"viability, T/C",[20],101%
same,"viability, T/C",[21],108%
same,"viability, T/C",[22],108%
same,"viability, T/C",[23],58%
same,"viability, T/C",[24],7.88%
same,"viability, T/C",[25],97.7%
same,"viability, T/C",[26],103%
same,"viability, T/C",[27],107%
same,"viability, T/C",[28],106%
same,"viability, T/C",[29],44.2%
same,"viability, T/C",[30],9.12%
same,"viability, T/C",[31],94.2%
same,"viability, T/C",[32],92.1%
same,"viability, T/C",[33],101%
same,"viability, T/C",[34],67.5%
same,"viability, T/C",[35],21.9%
same,"viability, T/C",[36],2.52%
CC(Nc1ccc2c(c1)OCCn1cc(N3C(=O)OCC3C(F)F)nc1-2)C(N)=O (centres undefined) + C#Cc1c(F)ccc2cc(O)cc(-c3ncc4c(N5CC6CCC(C5)N6)nc(OCC56CCCN5CC(F)C6)nc4c3F)c12,IC50,second compound 0.0316 µM,> 10 µM
same,IC50,second compound 0.1 µM,> 10 µM
same,IC50,second compound 0.316 µM,> 10 µM
same,IC50,second compound 1 µM,> 10 µM
same,IC50,second compound 3.16 µM,9.56 µM
same,IC50,second compound 10 µM,4.91 µM
same,"viability, T/C",[1],99.8%
same,"viability, T/C",[2],102%
same,"viability, T/C",[3],112%
same,"viability, T/C",[4],110%
same,"viability, T/C",[5],114%
same,"viability, T/C",[6],66.2%
same,"viability, T/C",[7],95%
same,"viability, T/C",[8],102%
same,"viability, T/C",[9],109%
same,"viability, T/C",[10],114%
same,"viability, T/C",[11],113%
same,"viability, T/C",[12],73.7%
same,"viability, T/C",[13],97.1%
same,"viability, T/C",[14],102%
same,"viability, T/C",[15],112%
same,"viability, T/C",[16],115%
same,"viability, T/C",[17],114%
same,"viability, T/C",[18],70.3%
same,"viability, T/C",[19],94.6%
same,"viability, T/C",[20],101%
same,"viability, T/C",[21],112%
same,"viability, T/C",[22],115%
same,"viability, T/C",[23],113%
same,"viability, T/C",[24],62.6%
same,"viability, T/C",[25],98.4%
same,"viability, T/C",[26],102%
same,"viability, T/C",[27],110%
same,"viability, T/C",[28],114%
same,"viability, T/C",[29],110%
same,"viability, T/C",[30],47.7%
same,"viability, T/C",[31],96.6%
same,"viability, T/C",[32],100%
same,"viability, T/C",[33],98.6%
same,"viability, T/C",[34],94.4%
same,"viability, T/C",[35],70.2%
same,"viability, T/C",[36],17.4%
